As usually defined, the IC50 is the concentration that inhibits the measured activity by half.

These results are taken from patent US20240199605A1, “SMALL MOLECULAR INHIBITORS OF NF-kB INDUCING KINASE” (Janssen Pharmaceutica NV, priority 2019, published 2024).

Assay [1] addresses recombinant human NF-kappaB-inducing kinase (NIK/MAP3K14) (Homo sapiens (Human), UniProt Q99558). Nature of the assay: Inhibition of auto-phosphorylation of recombinant human NIK/MAP3K14 (AlphaScreen). The class given is biochemical. Conditions: NIK auto-phosphorylation, 5 μM ATP, 1 nM NIK, 2 h at 25° C.; average of values. An outline of the steps:
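GST-tagged NIK (1 nM) auto-phosphorylated with 5 μM ATP for 2 h at 25° C. in 50 mM Tris pH 7.5, 5 mM MgCl2, 1 mM EGTA, 1 mM DTT, 0.1 mM Na3VO4, 0.01% Tween 20 (0.7% DMSO). Detected by AlphaScreen via anti-phospho-IKK Ser176/180 antibody; IC50 from sigmoidal fit of % inhibition versus log concentration.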

Assay [2] relates to p-IKKα levels in L363 (NIK translocated multiple myeloma) cells. Nature of the assay: Effect of compounds on p-IKKα levels in L363 cells (AlphaLISA SureFire Ultra). The class given is cell-based, human. The note with it: Homo sapiens, L-363, 6 h, BAFF stimulated, MG132, 6 h, average of values, read-out: Assay 2 IC50. An outline of the steps: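 Inhibition of p-IKKα (Ser176/180) read by AlphaLISA after 6 h, 37 °C compound exposure (11-point 1:3 series, 0.3% DMSO) of L363 cells pre-incubated overnight ± 250 ng/ml BAFF and plated ± BAFF ± 10 μM MG132. Normalised to BAFF/MG132/DMSO and unstimulated controls; IC50 by sigmoidal fitting, duplicates.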
(Alpha assays give light when donor and acceptor beads are brought close together.)

Sequence of recombinant human NF-kappaB-inducing kinase (NIK/MAP3K14) (Q99558 whole entry): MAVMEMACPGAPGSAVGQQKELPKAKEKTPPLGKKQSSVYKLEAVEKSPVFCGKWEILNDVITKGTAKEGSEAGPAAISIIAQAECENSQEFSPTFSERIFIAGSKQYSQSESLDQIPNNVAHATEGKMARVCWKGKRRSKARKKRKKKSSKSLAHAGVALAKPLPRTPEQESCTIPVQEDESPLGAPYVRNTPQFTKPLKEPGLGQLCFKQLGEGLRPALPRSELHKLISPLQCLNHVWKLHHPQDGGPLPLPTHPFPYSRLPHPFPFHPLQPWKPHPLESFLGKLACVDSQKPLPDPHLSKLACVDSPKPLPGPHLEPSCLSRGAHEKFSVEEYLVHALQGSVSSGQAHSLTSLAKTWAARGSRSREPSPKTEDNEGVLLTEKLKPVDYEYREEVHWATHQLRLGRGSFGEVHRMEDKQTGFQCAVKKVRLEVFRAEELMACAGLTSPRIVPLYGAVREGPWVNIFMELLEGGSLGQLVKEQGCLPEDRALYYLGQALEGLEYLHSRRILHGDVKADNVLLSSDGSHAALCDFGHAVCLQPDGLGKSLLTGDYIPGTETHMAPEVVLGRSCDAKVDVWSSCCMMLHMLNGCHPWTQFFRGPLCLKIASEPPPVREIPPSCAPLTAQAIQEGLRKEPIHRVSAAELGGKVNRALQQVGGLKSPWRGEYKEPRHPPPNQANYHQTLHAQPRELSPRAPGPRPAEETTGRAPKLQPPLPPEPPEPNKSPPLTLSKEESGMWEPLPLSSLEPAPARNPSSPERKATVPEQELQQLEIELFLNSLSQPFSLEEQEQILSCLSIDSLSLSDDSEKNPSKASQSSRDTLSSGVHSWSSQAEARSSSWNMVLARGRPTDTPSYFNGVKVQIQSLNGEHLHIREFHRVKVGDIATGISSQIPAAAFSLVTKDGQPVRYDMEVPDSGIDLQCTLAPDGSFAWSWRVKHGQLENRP

Take `CN1CC[C@@](O)(C#Cc2cccc(-c3ncc4c(-c5cnn(C)c5)cnc(N)c4n3)c2)C1=O` [Example 122, (R)-3-[2-[3-[8-Amino-5-(1-methylpyrazol-4-yl)pyrido[3,4-d]pyrimidin-2-yl]phenyl]ethynyl]-3-hydroxy-1-methyl-pyrrolidin-2-one]: the half-maximal inhibitory concentration (IC50) in assay [1] is no more than 0.5 nM; in assay [2], 2.3 nM.

As to `Cc1cnc(N)c2nc(-c3cccc(C#C[C@]4(O)CCn5ccnc54)c3)ncc12` [Example 86, (R)-7-[2-[3-(8-Amino-5-methyl-pyrido[3,4-d]pyrimidin-2-yl)phenyl]ethynyl]-5,6-dihydropyrrolo[1,2-a]imidazol-7-ol], the half-maximal inhibitory concentration (IC50) was no more than 0.5 nM in assay [1] and 7.7 nM in assay [2].

For `Cc1ccc(C#C[C@@]2(O)CCN(C)C2=O)cc1-c1ccc2ncnc(N)c2n1` [Example 260, (S)-3-((3-(4-Aminopyrido[3,2-d]pyrimidin-6-yl)-4-methylphenyl)ethynyl)-3-hydroxy-1-methylpyrrolidin-2-one], the IC50 in assay [1] is 110 nM; in assay [2], 2740 nM.

On to `Cc1csc([C@](C)(O)C#Cc2cccc(-c3ccc4nc(C)nc(N)c4n3)c2)n1` [Example 180, (R)-4-(3-(4-Amino-2-methylpyrido[3,2-d]pyrimidin-6-yl)phenyl)-2-(4-methylthiazol-2-yl)but-3-yn-2-ol], for which the IC50 in assay [1] is 410 nM; in assay [2] it was greater than 5000 nM.

On to `Cc1cc(C#C[C@]2(O)CCc3cccnc32)cc(-c2ncc3ccnc(N)c3n2)c1` [Example 52, (R)-7-[2-[3-(8-Aminopyrido[3,4-d]pyrimidin-2-yl)-5-methyl-phenyl]ethynyl]-5,6-dihydrocyclopenta[b]pyridin-7-ol], for which the IC50 turned out to be 2.5 nM in assay [1] and 110 nM in assay [2].

In the case of `Cc1n[nH]c(C)c1-c1cnc(N)c2nc(-c3cccc(C#C[C@]4(O)CCN(C)C4=O)c3)ncc12` [Example 125, (R)-3-[2-[3-[8-Amino-5-(3,5-dimethyl-1H-pyrazol-4-yl)pyrido[3,4-d]pyrimidin-2-yl]phenyl]ethynyl]-3-hydroxy-1-methyl-pyrrolidin-2-one], the half-maximal inhibitory concentration (IC50) in assay [1] is no more than 0.5 nM; in assay [2], 18 nM.

Take `COc1ccc(C#C[C@]2(O)CCN(C)C2=O)cc1-c1ncc2ncnc(N)c2n1` [Example 177, (R)-3-((3-(8-Aminopyrimido[5,4-d]pyrimidin-2-yl)-4-methoxyphenyl)ethynyl)-3-hydroxy-1-methylpyrrolidin-2-one]: the concentration for half-maximal inhibition (IC50) came out at 5.1 nM in assay [1] and 66 nM in assay [2].

As to `CN1CC[C@@](O)(C#Cc2cccc(-c3ccc4ccnc(N)c4c3)c2)C1=O` [Example 36, (R)-3-[2-[3-(1-Amino-7-isoquinolyl)phenyl]ethynyl]-3-hydroxy-1-methyl-pyrrolidin-2-one], the IC50 in assay [1] was determined as 1.9 nM; in assay [2], 200 nM.

As to `CN1CC[C@@](O)(C#Cc2cccc(-c3cc4c(N)ncnc4s3)c2)C1=O` [Example 141, (R)-3-((3-(4-Aminothieno[2,3-d]pyrimidin-6-yl)phenyl)ethynyl)-3-hydroxy-1-methylpyrrolidin-2-one], the half-inhibitory concentration (IC50) is 16 nM in assay [1] and 2450 nM in assay [2].

On to `CO[C@@]1(C#Cc2cccc(-c3ccc4ncnc(N)c4n3)c2)CCN(C)C1=O` [Example 207, (R)-3-((3-(4-Aminopyrido[3,2-d]pyrimidin-6-yl)phenyl)ethynyl)-3-methoxy-1-methylpyrrolidin-2-one], for which the IC50 in assay [1] was 180 nM; in assay [2] it was greater than 5000 nM.

Turning to `CN1CC[C@@](O)(C#Cc2cccc(N3CCc4ncnc(N)c4C3)c2)C1=O` [Example 159, (R)-3-((3-(4-Amino-7,8-dihydropyrido[4,3-d]pyrimidin-6(5H)-yl)phenyl)ethynyl)-3-hydroxy-1-methylpyrrolidin-2-one], the IC50 in assay [1] worked out at 1.3 nM; in assay [2], 130 nM.

As for `CN1CC[C@@](O)(C#Cc2cccc(-c3ccc4ncnc(N(C)C)c4n3)c2)C1=O` [Example 25, (R)-3-((3-(4-(Dimethylamino)pyrido[3,2-d]pyrimidin-6-yl)phenyl)ethynyl)-3-hydroxy-1-methylpyrrolidin-2-one], the results for the 50% inhibitory concentration (IC50) in assay [1] and in assay [2] were 2.1 nM and 180 nM, respectively.

With `CN1CC[C@@](O)(C#Cc2cccc(-c3cc(C4CCOCC4)c4ncnc(N)c4n3)c2)C1=O` [Example 255, (R)-3-((3-(4-Amino-8-(tetrahydro-2H-pyran-4-yl)pyrido[3,2-d]pyrimidin-6-yl)phenyl)ethynyl)-3-hydroxy-1-methylpyrrolidin-2-one], the figures for the IC50 in assay [1] and in assay [2] were 0.7 nM and 15 nM, respectively.

As to `CN1CC[C@@](O)(C#Cc2cccc(-c3cc(C(F)(F)F)c4ncnc(N)c4c3)c2)C1=O` [Example 115, (R)-3-((3-(4-Amino-8-(trifluoromethyl)quinazolin-6-yl)phenyl)ethynyl)-3-hydroxy-1-methylpyrrolidin-2-one], the half-maximal inhibitory concentration (IC50) in assay [1] is no more than 0.5 nM; in assay [2], 42 nM.

As for `Cc1cnc(C)c2nc(-c3cccc(C#C[C@]4(O)CCN(C)C4=O)c3)ccc12` [Example 252, (R)-3-((3-(5,8-Dimethyl-1,7-naphthyridin-2-yl)phenyl)ethynyl)-3-hydroxy-1-methylpyrrolidin-2-one], the half-maximal inhibitory concentration (IC50) in assay [1] is 31 nM; in assay [2] it was greater than 2000 nM.

In the case of `Cc1nc(N)c2nc(-c3cccc(C#C[C@]4(O)CCN(C)C4=O)c3)nc(C)c2n1` [Example 156, (R)-3-((3-(8-Amino-4,6-dimethylpyrimido[5,4-d]pyrimidin-2-yl)phenyl)ethynyl)-3-hydroxy-1-methylpyrrolidin-2-one], the IC50 is 1.1 nM in assay [1] and 16 nM in assay [2].

As for `CN(C)Cc1cnc(N)c2nc(-c3cccc(C#C[C@]4(O)CCN(C)C4=O)c3)ncc12` [Example 135, (R)-3-[2-[3-[8-Amino-5-(dimethylaminomethyl)pyrido[3,4-d]pyrimidin-2-yl]phenyl]ethynyl]-3-hydroxy-1-methyl-pyrrolidin-2-one], the IC50 in assay [1] is 5.7 nM; in assay [2], 140 nM.

For `Cc1nc(N)c2c(n1)CCN(c1cccc(C#C[C@]3(O)CCN(C)C3=O)c1)C2` [Example 215, (R)-3-((3-(4-Amino-2-methyl-7,8-dihydropyrido[4,3-d]pyrimidin-6(5H)-yl)phenyl)ethynyl)-3-hydroxy-1-methylpyrrolidin-2-one], the figures for the IC50 in assay [1] and in assay [2] were 16 nM and 900 nM, respectively.

For `Cc1ncc(C#N)c2ccc(-c3cccc(C#C[C@]4(O)CCN(C)C4=O)c3)nc12` [Example 251, (R)-2-(3-((3-Hydroxy-1-methyl-2-oxopyrrolidin-3-yl)ethynyl)phenyl)-8-methyl-1,7-naphthyridine-5-carbonitrile], the half-maximal inhibitory concentration (IC50) in assay [1] came to 86 nM; in assay [2], 560 nM.

For `Cc1nc(N)c2nc(-c3cccc(C#C[C@]4(O)CCN(C)C4=O)c3)ccc2n1` [Example 6, (R)-3-((3-(4-Amino-2-methylpyrido[3,2-d]pyrimidin-6-yl)phenyl)ethynyl)-3-hydroxy-1-methylpyrrolidin-2-one], the IC50 in assay [1] was 0.6 nM; in assay [2], 12 nM.

For `CN1CC[C@@](O)(C#Cc2cccc(-c3ccc4nc(F)nc(N)c4n3)c2)C1=O` [Example 288, (R)-3-((3-(4-Amino-2-fluoropyrido[3,2-d]pyrimidin-6-yl)phenyl)ethynyl)-3-hydroxy-1-methylpyrrolidin-2-one], the IC50 in assay [1] turned out to be 0.9 nM; in assay [2] it was 16 nM.
